Data: ChEMBL document CHEMBL5385851, “Natural quinazolinones: From a treasure house to promising anticancer leads” (Eur J Med Chem, 2023)
Each block holds one molecule with its values, some of them ahead of it.

Experiments:
NCI-N87 [1] = assay: Cytotoxicity against human NCI-N87 cells; assay type: functional, cell-based
PC-3 = assay: Cytotoxicity against human PC-3 cells assessed as inhibition of cell growth; assay type: functional, cell-based
U-251 [2] = assay: Growth inhibition of human U-251 cells by sulforhodamine B assay; assay type: functional; conditions: time 72 hrs
HT-29 [3] = assay: Growth inhibition of human HT-29 cells by SRB assay; assay type: functional
HUVEC = assay: Cytotoxicity against HUVEC cells assessed as reduction in cell viability incubated for 48 hrs by MTT assay; assay type: functional, cell-based; conditions: Homo sapiens
SMMC-7721 = assay: Anticancer activity against human SMMC-7721 cells assessed as cell growth inhibition incubated for 48 hrs by CCK8 assay; assay type: functional, cell-based; conditions: SMMC-7721, 48 h
SF-295 = assay: Growth inhibition against human SF-295 cells incubated for 48 hrs by sulforhodamine B assay; assay type: functional
NCI-N87 [4] = assay: Growth inhibition of human NCI-N87 cells assessed as reduction in cell viability measured after 72 hrs by MTT assay; assay type: functional
HL-60 [5] = assay: Growth inhibition of human HL-60 cells incubated for 4 days by WST assay; assay type: functional; conditions: HL-60, 96 h, time 4 day
K562 = assay: Growth inhibition of human K562 cells incubated for 48 hrs by sulforhodamine B assay; assay type: functional
HCT-116 = assay: Anticancer activity against human HCT-116 cells assessed as cell growth inhibition; assay type: functional
DU-145 [6] = assay: Growth inhibition of human DU-145 cells incubated for 48 hrs by sulforhodamine B assay; assay type: functional
MCF7 [7] = assay: Antiproliferative activity against human MCF7 cells assessed as cell growth inhibition incubated for 48 hrs by MTT assay; assay type: functional, cell-based; conditions: MCF7, 48 h
MCF7 [8] = assay: Growth inhibition of human MCF7 cells incubated for 48 hrs by SRB assay; assay type: functional
MDA-MB-231 = assay: Antiproliferative activity against human MDA-MB-231 cells assessed as reduction in cell viability after 48 hrs by SRB assay; assay type: functional, cell-based; conditions: MDA-MB-231, 48 h
P388 [9] = assay: Cytotoxicity against mouse P388 cells assessed as inhibition of cell growth incubated for 48 hrs by SRB assay; assay type: functional, cell-based; conditions: P388, 48 h
HT-29 [10] = assay: Cytotoxicity against human HT-29 cells assessed as reduction in cell viability by SRB assay; assay type: functional, cell-based
P388 [11] = assay: Cytotoxicity against mouse P388 cells assessed as reduction in cell viability by SRB assay; assay type: functional; conditions: read-out: ED50 (the source's name)
HT-29 [12] = assay: Cytotoxicity against human HT-29 cells assessed as cell growth inhibition by MTT assay; assay type: functional, cell-based
MCF7 [13] = assay: Cytotoxicity against human MCF7 cells assessed as reduction in cell growth; assay type: functional, cell-based
NCI-H460 = assay: Cytotoxicity against human NCI-H460 cells assessed reduction in cell viability; assay type: functional, cell-based
SF-268 = assay: Antiproliferative activity against human SF-268 cells assessed as reduction in cell growth incubated for 48 hrs by SRB assay; assay type: functional, cell-based; conditions: SF-268, 48 h
DU-145 [14] = assay: Growth inhibition of human DU-145 cells incubated for 24 hrs by sulforhodamine B assay; assay type: functional
HL-60 [15] = assay: Cytotoxicity against human HL-60 cells assessed as cell growth inhibition by MTT assay; assay type: functional
HL-60 [16] = assay: Cytotoxicity against human HL-60 cells assessed as reduction in cell viability; assay type: functional, cell-based
U-251 [17] = assay: Cytotoxicity against human U-251 cells assessed as cell growth inhibition; assay type: functional
DU-145 [18] = assay: Cytotoxicity against human DU-145 cells assessed as cell growth inhibition; assay type: functional
MGC-803 = assay: Cytotoxicity against human MGC-803 assessed as inhibition of cell growth by MTT assay; assay type: functional, cell-based
L1210 = assay: Antiproliferative activity against mouse L1210 cells assessed as cell growth inhibition measured after 72 hrs by MTT assay; assay type: functional, cell-based; conditions: L1210, 72 h
P388 [19] = assay: Antiproliferative activity against mouse P388 cells assessed as reduction in cell proliferation incubated for 48 hrs by MTT assay; assay type: functional, cell-based; conditions: P388, 48 h
HT-29 [20] = assay: Antiproliferative activity against human HT-29 cells assessed as reduction in cell viability after 72 hrs by MTT assay; assay type: functional, cell-based; conditions: HT-29, 72 h
NCI-H1975 = assay: Antiproliferative activity against human NCI-H1975 cells assessed as cell growth inhibition incubated for 72 hrs by MTT assay; assay type: functional, cell-based; conditions: NCI-H1975, 72 h
NCI-H1650 = assay: Antiproliferative activity against human NCI-H1650 cells assessed as cell growth inhibition incubated for 72 hrs by MTT assay; assay type: functional, cell-based; conditions: NCI-H1650, 72 h
MCF7 [21] = assay: Antiproliferative activity against human MCF7 cells assessed as cell growth inhibition incubated for 72 hrs by MTT assay; assay type: functional, cell-based; conditions: MCF7, 72 h
NCI/ADR-RES = assay: Antiproliferative activity against human MCF7ADR cells assessed as cell growth inhibition incubated for 72 hrs by MTT assay; assay type: functional, cell-based

SMILES: O=c1c2ccc(O)cc2nc2c3[nH]c4ccccc4c3ccn12
- IC50 (NCI-N87 [1]): 27.9 µM
- IC50 (PC-3): 17.4 µM

- GI50 (U-251 [2]): 0.02 µM
- GI50 (HT-29 [3]): 31.6 µM
- IC50 (SMMC-7721): 18.9 µM
- GI50 (HL-60 [5]): 19.8 µM
- GI50 (K562): 25.8 µM
- GI50 (HCT-116): 33.9 µM
- GI50 (DU-145 [6]): 31.7 µM
- IC50 (MCF7 [7]): 74.5 µM
- GI50 (MCF7 [8]): 19.6 µM
- IC50 (MDA-MB-231): 118 µM
SMILES: O=c1c2ccccc2nc2n1CCc1c-2[nH]c2ccccc12 [RUTAECARPINE]
- IC50 (HUVEC): 16.5 µM
- GI50 (SF-295): 14.1 µM
- GI50 (NCI-N87 [4]): 8.41 µM
- IC50 (P388 [9]): 36.8 µM
- IC50 (HT-29 [10]): 118 µM

SMILES: COc1cccc2c(=O)n3ccc4c5ccccc5[nH]c4c3nc12
- EC50 (P388 [11]): 12.3 µM
- IC50 (HT-29 [12]): 27.1 µM

SMILES: CC(=O)C[C@]1(O)c2ccccc2-n2c1nc1ccccc1c2=O
- IC50 (MCF7 [13]): 33.8 µM
- IC50 (NCI-H460): 27 µM
- IC50 (SF-268): 43.9 µM

- GI50 (DU-145 [14]): 0.1 µM
SMILES: C[S+]([O-])c1ccc2[nH]c3c(c2c1)CCN1C(=O)c2ccccc2NC31 (stereo not given)

SMILES: O=c1c2ccccc2nc2n1CCc1c-2[nH]c2c(Cl)c(Cl)ccc12
- GI50 (HL-60 [15]): 0.15 µM

SMILES: CCO[C@@H]1c2c([nH]c3ccccc23)-c2nc3ccccc3c(=O)n2[C@H]1O
- IC50 (HL-60 [16]): 8.31 µM

SMILES: O=C1c2ccccc2NC2c3[nH]c4ccccc4c3CCN12 (stereo not given)
- GI50 (U-251 [17]): 0.02 µM
- GI50 (DU-145 [18]): 0.2 µM

SMILES: O=c1c2ccccc2nc2n1CC[C@@H]2O[C@@H]1O[C@H](CO)[C@@H](O)[C@H](O)[C@H]1O
- IC50 (MGC-803): 84.1 µM

- IC50 (L1210): 0.13 µM
SMILES: O=c1c2ccccc2nc2n1Cc1cc3cccnc3nc1-2

- IC50 (P388 [19]): 12.4 µM
- IC50 (HT-29 [20]): 24.7 µM
SMILES: O=c1c2cccc(O)c2nc2n1CCc1c-2[nH]c2ccccc12

- IC50 (NCI-H1975): 5.59 µM
- IC50 (NCI-H1650): 4.53 µM
- IC50 (MCF7 [21]): 0.3 µM
SMILES: CN1c2ccccc2C(=O)N2CCc3c([nH]c4ccccc34)C21 (stereo not given)
- IC50 (NCI/ADR-RES): 0.47 µM
